Data as given in patent US11363816B2, “4-amino-6-(heterocyclic)picolinates and 6-amino-2-(heterocyclic)pyramidine-4-carboxylates and their use as herbicides” (Dow AgroSciences LLC, priority 2017, dated 2022).

How the values were obtained:
Assay type in all cases: in vivo
[1] = system: POLCO=Polygonum convolvulus L. (wild buckwheat); assay: Postemergent herbicidal activity in the greenhouse; conditions: 21-28 DAAA
Experimental: (§1) Seeds of the desired test plant species were planted in Sun Gro MetroMix® 306 planting mixture, which typically has a pH of 6.0 to 6.8 and an organic matter content of about 30 percent, in plastic pots with a surface area of 103.2 square centimeters (cm^2). When required to ensure good germination and healthy plants, a fungicide treatment and/or other chemical or physical treatment was applied. The plants were grown for 7-36 days (d) in a greenhouse with an approximate 14 hour (h) photoperiod which was maintained at about 18° C. during the day and 17° C. during the night. Nutrients and water were added on a regular basis and supplemental lighting was provided with overhead metal halide 1000-Watt lamps as necessary. The plants were employed for testing when they reached the second or third true leaf stage.
(§2) An aliquot of formulated Compound 5 (100 grams acid equivalent per liter (g ae/L); emusifiable concentrate (EC)), Compound 6 (100 g ae/L; EC) or Compound 7 (100 g ae/L; EC) was placed in a 25 mL glass vial and diluted in a volume of 1.25% (volume per volume (v/v)) aqueous Actirob B esterified rapeseed oil to obtain a stock solution. The concentrated stock solutions were diluted with an aqueous mixture of 1.25% v/v of aqueous Actirob B esterified rapeseed oil to provide the appropriate application rates. Compound requirements are based upon a 12 mL application volume at a rate of 187 liters per hectare (L/ha). Formulated compounds were applied to the plant material with an overhead Mandel track sprayer equipped with 8002E nozzles calibrated to deliver 187 L/ha over an application area of 0.503 square meters (m^2) at a spray height of 18 inches ([…]) above average plant canopy. Control plants were sprayed in the same manner with the solvent blank.
(§3) The treated plants and control plants were placed in a greenhouse as described above and watered by subirrigation to prevent washoff of the test compounds. After 20-22 d, the condition of the test plants as compared with that of the control plants was determined visually and scored on a scale of 0 to 100 percent where 0 corresponds to no injury and 100 corresponds to complete kill. […]
(§4) The values reported are means.

[2] = system: CIRAR=Cirsium arvense (L.) Scop. (Canada thistle); assay: Postemergent herbicidal activity in the greenhouse; conditions: 21-28 DAAA
Experimental: as §1, §2, §3, §4

[3] = system: PAPRH=Papaver rhoeas L. (common poppy); assay: Postemergent herbicidal activity in the greenhouse; conditions: 21-28 DAAA
Experimental: as §1, §2, §3, §4

[4] = system: SINAR=Sinapis arvensis L. (wild mustard); assay: Postemergent herbicidal activity in the greenhouse; conditions: 21-28 DAAA
Experimental: as §1, §2, §3, §4

[5] = system: VERSS=Veronica spp (speedwell); assay: Postemergent herbicidal activity in the greenhouse; conditions: 21-28 DAAA
Experimental: as §1, §2, §3, §4

[6] = system: CHEAL=Chenopodium album L. (common lambsquarters); assay: Postemergent herbicidal activity in the greenhouse; conditions: 21-28 DAAA
Experimental: as §1, §2, §3, §4

[7] = system: KCHSC=Kochia scoparia (L.) Schrad. (Kochia); assay: Postemergent herbicidal activity in the greenhouse; conditions: 21-28 DAAA
Experimental: as §1, §2, §3, §4

[8] = system: ANTAR=Anthemis arvensis (field chamomile); assay: Postemergent herbicidal activity in the greenhouse; conditions: 21-28 DAAA
Experimental: as §1, §2, §3, §4

[9] = system: Res-PAPRH=Papaver rhoeas L. (common poppy) resistant to tribenuron and thifensulfuron (ALS) and 2,4-D; assay: Postemergent herbicidal activity in the greenhouse; conditions: 21-28 DAAA
Experimental: as §1, §2, §3, §4

[10] = system: PAPRH=Papaver rhoeas L. (common poppy); assay: Postemergence field trial, Granon, Spain (Table 7)
Experimental: Field trials were established in Spain (Banares and Granon) and Germany (Bielefeld) to evaluate the efficacy of Compound 5, Compound 6, and Compound 7. Trials were designed as randomized complete blocks with three to four replicates. Trials were established in winter wheat with natural weed population with plot sizes of 2-2.5 meters (m) by 6-8 m (width×length). The crops were grown using normal cultural practices for fertilization, seeding, and maintenance to ensure good growth of the crop. All herbicide treatments were applied post-emergence with applications made to the crops at the BBCH 21 to 23 growth stage. Herbicides were applied with backpack or bicycle sprayers using air as a propellant. The sprayers utilized flat fan air-induction spray nozzles calibrated to deliver a uniform spray pattern that provided thorough coverage of the foliage using a 200 L/ha spray volume. All treatments were applied with methylated seed oil (MSO) at 1.25% v/v. Phytotoxicity to the weeds was assessed visually at several intervals after application as percent overall control, compared to an untreated control plot. In general, three to four replicates were assessed for each treatment. All treatment results are an average of three or four replicates. Compound 5, Compound 6, and Compound 7 were applied as emulsifiable concentrate (EC) formulations at 100 g ae/L EC, respectively.

[11] = system: POLCO=Polygonum convolvulus L. (wild buckwheat); assay: Postemergence field trial, Ellerslie, Alberta, Canada
Experimental: (§5) Field trials were established in Canada (in Ellerslie, Alberta; Nisku, Alberta and Hanley, Saskatchewan) to evaluate the efficacy of Compound 5, Compound 6, and Compound 7. Trials were designed as randomized complete blocks with four replicates. Trials were established in spring wheat with natural weed population with plot sizes of 2-3 meters (m) by 8-10 m (width×length). The crops were grown using normal cultural practices for fertilization, seeding, and maintenance to ensure good growth of the crop.
(§6) All herbicide treatments were applied post-emergence with applications made to the crops at BBCH (Phenological development stages of a plant) 14 to 22 growth stage. Herbicides were applied with backpack or bicycle sprayers using carbon dioxide (CO2) as a propellant. The sprayers utilized flat fan air-induction spray nozzles calibrated to deliver a uniform spray pattern that provided thorough coverage of the foliage using a 100 L/ha spray volume. All treatments were applied with methylated seed oil (MSO) at 1.25% v/v. Phytotoxicity to the weeds was assessed visually at several intervals after application as percent overall control, compared to an untreated control plot. In general, four replicates were assessed for each treatment. All treatment results are an average of four replicates.
(§7) Compound 5, Compound 6 and Compound 7 were applied as emulsifiable concentrate (EC) formulations at 100 g ae/L EC, respectively.

[12] = system: STEME=Stellaria media (L.) Vill. (common chickweed); assay: as above
Experimental: as §5, §6, §7

[13] = system: CHEAL=Chenopodium album L. (common lambsquarters); assay: as above
Experimental: as §5, §6, §7

In the case of `C#CCOC(=O)c1nc(-c2ccc3cc[nH]c3c2F)c(F)c(N)c1Cl` [Compound 5, prop-2-yn-1-yl 4-amino-3-chloro-5-fluoro-6-(7-fluoro-1H-indol-6-yl)picolinate], the “Percent (%) Visual Control POLCO” value ([1]; 10 g ae/ha) is reported as 100%, the “Percent (%) Visual Control POLCO” value ([1]; 20 g ae/ha) is reported as 100% and the “Percent (%) Visual Control CIRAR” value ([2]; 10 g ae/ha) is reported as 56.7%. For the same compound, the “Percent (%) Visual Control CIRAR” value ([2]; 20 g ae/ha) was 58.3%, the “Percent (%) Visual Control PAPRH” value ([3]; 10 g ae/ha) was 95% and the “Percent (%) Visual Control PAPRH” value ([3]; 20 g ae/ha) was 100%. For the same compound, the “Percent (%) Visual Control SINAR” value ([4]; 10 g ae/ha) was 89%, the “Percent (%) Visual Control SINAR” value ([4]; 20 g ae/ha) was 96.7% and the “Percent (%) Visual Control VERSS” value ([5]; 10 g ae/ha) was 77.5%. For the same compound, the “Percent (%) Visual Control VERSS” value ([5]; 20 g ae/ha) was 80.8%, the “Percent (%) Visual Control CHEAL” value ([6]; 10 g ae/ha) was 97.5% and the “Percent (%) Visual Control CHEAL” value ([6]; 20 g ae/ha) was 100%. For the same compound, the “Percent (%) Visual Control KCHSC” value ([7]; 10 g ae/ha) was 76.7%, the “Percent (%) Visual Control KCHSC” value ([7]; 20 g ae/ha) was 82.7% and the “Percent (%) Visual Control ANTAR” value ([8]; 10 g ae/ha) was 100%. The “Percent (%) Visual Control ANTAR” value ([8]; 20 g ae/ha) was 83.3%, the “Percent (%) Visual Control Res-PAPRH” value ([9]; 10 g ae/ha) was 87.5% and the “Percent (%) Visual Control Res-PAPRH” value ([9]; 20 g ae/ha) was 100%. The “Percent (%) Visual Control PAPRH 68DAAA” value ([10]; 5 g ae/ha) was 58.3%, the “Percent (%) Visual Control PAPRH 68DAAA” value ([10]; 10 g ae/ha) was 72.7% and the “Percent (%) Visual Control PAPRH 68DAAA” value ([10]; 20 g ae/ha) was 79.3%. For the same compound, the “Percent (%) Visual Control POLCO 51DAAA” value ([11]; 10 g ae/ha) was 76.3%, the “Percent (%) Visual Control POLCO 51DAAA” value ([11]; 20 g ae/ha) was 91% and the “Percent (%) Visual Control STEME 51DAAA” value ([12]; 10 g ae/ha) was 66.3%. For the same compound, the “Percent (%) Visual Control STEME 51DAAA” value ([12]; 20 g ae/ha) was 83.3%, the “Percent (%) Visual Control CHEAL 51DAAA” value ([13]; 10 g ae/ha) was 98% and the “Percent (%) Visual Control CHEAL 51DAAA” value ([13]; 20 g ae/ha) was 98%.
